In ChEMBL document CHEMBL1909046, “DrugMatrix in vitro pharmacology data”:

Target: Sigma non-opioid intracellular receptor 1 (Homo sapiens, UniProt Q99720)
Assay: DRUGMATRIX: Sigma1 radioligand binding (ligand: [3H] Haloperidol)
Assay type: cell membranes, Jurkat, Membrane
Conditions: Not Active = under 50% inhibition at 10 µM; read-out: IC50

Sequence of Sigma non-opioid intracellular receptor 1 (Q99720 whole entry): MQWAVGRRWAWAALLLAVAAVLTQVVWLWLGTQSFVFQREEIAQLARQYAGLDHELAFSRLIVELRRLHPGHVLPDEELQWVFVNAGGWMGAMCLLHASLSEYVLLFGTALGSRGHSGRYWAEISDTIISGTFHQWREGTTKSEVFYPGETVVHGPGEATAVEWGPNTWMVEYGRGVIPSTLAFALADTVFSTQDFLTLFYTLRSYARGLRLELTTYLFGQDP

Row | SMILES | IC50
1 | CC(C)NCC(O)COc1cccc2ccccc12 (stereo not given) [PROPRANOLOL] | 2870 nM

Same assay, conditions: Not Active = under 50% inhibition at 10 µM; read-out: Ki

Row | SMILES | Ki
2 | CC(C)NCC(O)COc1cccc2ccccc12 (stereo not given) [PROPRANOLOL] | 1210 nM

Same assay, conditions: jurkat; Not Active = under 50% inhibition at 10 µM

Row | SMILES | IC50
3 | CC1=C(CC(=O)O)c2cc(F)ccc2/C1=C\c1ccc([S+](C)[O-])cc1 (stereo not given) | Not Active
4 | N[C@H](CSC(=S)NCc1ccccc1)C(=O)O | Not Active
5 | Clc1ccc2c(c1)C(N1CCNCC1)=Nc1ccccc1O2 [AMOXAPINE] | Not Active
6 | CN1CCC(=C2c3ccccc3C=Cc3ccccc32)CC1 [CYPROHEPTADINE] | Not Active
7 | CC/C(=C(/CC)c1ccc(O)cc1)c1ccc(O)cc1 [DIETHYLSTILBESTROL] | Not Active

Target: Tyrosine-protein kinase Fyn (Homo sapiens, UniProt P06241);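 further: enzymatic inhibition of Fyn kinase activity measured with Poly(Glu:Tyr) as the phosphorylation substrate; in other assays of this panel Not Active means under 50% inhibition at 10 µM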
Sequence (P06241 whole entry): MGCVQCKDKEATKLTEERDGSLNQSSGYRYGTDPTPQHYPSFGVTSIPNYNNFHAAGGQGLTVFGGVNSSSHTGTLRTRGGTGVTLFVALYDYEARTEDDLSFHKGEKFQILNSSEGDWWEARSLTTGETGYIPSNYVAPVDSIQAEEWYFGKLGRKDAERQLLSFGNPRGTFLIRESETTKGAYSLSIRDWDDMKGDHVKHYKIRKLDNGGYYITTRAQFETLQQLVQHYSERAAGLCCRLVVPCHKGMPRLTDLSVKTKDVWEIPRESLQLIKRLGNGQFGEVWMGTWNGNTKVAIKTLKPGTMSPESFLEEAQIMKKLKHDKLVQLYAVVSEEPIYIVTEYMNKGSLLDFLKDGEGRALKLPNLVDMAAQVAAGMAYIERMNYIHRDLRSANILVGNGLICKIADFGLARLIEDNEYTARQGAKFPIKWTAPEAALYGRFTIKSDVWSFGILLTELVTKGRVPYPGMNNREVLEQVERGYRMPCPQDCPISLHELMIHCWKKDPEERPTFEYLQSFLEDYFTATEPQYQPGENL
Assay: biochemical
Assay type: cell-based, Insect cells
Conditions: insect cells

Row | SMILES | IC50
8 | CC1=C(CC(=O)O)c2cc(F)ccc2/C1=C\c1ccc([S+](C)[O-])cc1 (stereo not given) | Not Active
9 | N[C@H](CSC(=S)NCc1ccccc1)C(=O)O | Not Active
10 | Clc1ccc2c(c1)C(N1CCNCC1)=Nc1ccccc1O2 [AMOXAPINE] | Not Active
11 | CN1CCC(=C2c3ccccc3C=Cc3ccccc32)CC1 [CYPROHEPTADINE] | Not Active
12 | CC(C)NCC(O)COc1cccc2ccccc12 (stereo not given) [PROPRANOLOL] | Not Active

Same assay, conditions: read-out: IC50

Row | SMILES | IC50
13 | CC/C(=C(/CC)c1ccc(O)cc1)c1ccc(O)cc1 [DIETHYLSTILBESTROL] | 14.2 µM

Target: T1, Glucocorticoid receptor (Homo sapiens, UniProt P04150); further: in other assays of this panel Not Active means under 50% inhibition at 10 µM
T1 sequence (P04150 whole entry): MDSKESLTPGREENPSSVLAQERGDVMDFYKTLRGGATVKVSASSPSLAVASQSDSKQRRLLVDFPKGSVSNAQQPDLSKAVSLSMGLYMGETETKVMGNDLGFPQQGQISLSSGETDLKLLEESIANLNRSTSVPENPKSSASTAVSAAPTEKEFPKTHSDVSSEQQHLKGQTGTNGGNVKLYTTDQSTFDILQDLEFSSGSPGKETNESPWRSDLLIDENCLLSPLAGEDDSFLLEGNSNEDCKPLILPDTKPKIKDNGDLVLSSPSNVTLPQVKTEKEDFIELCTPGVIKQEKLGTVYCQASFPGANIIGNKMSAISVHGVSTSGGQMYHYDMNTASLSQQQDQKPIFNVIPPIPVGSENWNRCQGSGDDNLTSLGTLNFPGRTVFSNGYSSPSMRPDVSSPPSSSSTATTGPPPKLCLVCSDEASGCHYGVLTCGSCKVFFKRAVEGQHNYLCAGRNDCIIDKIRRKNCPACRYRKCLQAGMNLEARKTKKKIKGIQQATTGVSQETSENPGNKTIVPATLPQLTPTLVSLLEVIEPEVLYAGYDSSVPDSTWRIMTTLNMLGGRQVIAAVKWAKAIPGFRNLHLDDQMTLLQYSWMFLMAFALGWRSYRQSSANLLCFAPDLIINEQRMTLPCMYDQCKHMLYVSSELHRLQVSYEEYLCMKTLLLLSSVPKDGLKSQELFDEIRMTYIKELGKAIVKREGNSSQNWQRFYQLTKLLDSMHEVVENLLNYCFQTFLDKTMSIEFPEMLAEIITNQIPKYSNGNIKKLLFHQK
Assay: not given
Conditions: hela s3

Row | SMILES | IC50
14 | CC1=C(CC(=O)O)c2cc(F)ccc2/C1=C\c1ccc([S+](C)[O-])cc1 (stereo not given) | Not Active
15 | N[C@H](CSC(=S)NCc1ccccc1)C(=O)O | Not Active
16 | Clc1ccc2c(c1)C(N1CCNCC1)=Nc1ccccc1O2 [AMOXAPINE] | Not Active
17 | CN1CCC(=C2c3ccccc3C=Cc3ccccc32)CC1 [CYPROHEPTADINE] | Not Active

Target: Cytochrome P450 2C9 (Homo sapiens, UniProt P11712); further: in other assays of this panel Not Active means under 50% inhibition at 10 µM
Sequence (P11712 whole entry): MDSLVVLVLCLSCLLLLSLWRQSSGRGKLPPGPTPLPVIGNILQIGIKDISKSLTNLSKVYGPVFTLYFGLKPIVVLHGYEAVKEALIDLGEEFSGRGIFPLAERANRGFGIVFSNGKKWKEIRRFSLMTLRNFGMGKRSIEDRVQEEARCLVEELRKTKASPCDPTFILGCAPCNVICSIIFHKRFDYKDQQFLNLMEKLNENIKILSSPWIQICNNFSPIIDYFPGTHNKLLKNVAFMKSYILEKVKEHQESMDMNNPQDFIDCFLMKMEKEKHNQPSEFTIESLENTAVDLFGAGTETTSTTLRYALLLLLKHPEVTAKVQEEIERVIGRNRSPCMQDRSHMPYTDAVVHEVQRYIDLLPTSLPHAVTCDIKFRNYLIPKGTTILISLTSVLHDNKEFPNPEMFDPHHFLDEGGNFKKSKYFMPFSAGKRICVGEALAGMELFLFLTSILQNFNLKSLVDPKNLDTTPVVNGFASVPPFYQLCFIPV
Assay: not given
Conditions: bti-tn-5b1-4

Row | SMILES | IC50 | Ki
18 | CC1=C(CC(=O)O)c2cc(F)ccc2/C1=C\c1ccc([S+](C)[O-])cc1 (stereo not given) | Not Active | Not Active
19 | N[C@H](CSC(=S)NCc1ccccc1)C(=O)O | Not Active | Not Active
20 | Clc1ccc2c(c1)C(N1CCNCC1)=Nc1ccccc1O2 [AMOXAPINE] | Not Active | Not Active
21 | CN1CCC(=C2c3ccccc3C=Cc3ccccc32)CC1 [CYPROHEPTADINE] | Not Active | Not Active
22 | CC/C(=C(/CC)c1ccc(O)cc1)c1ccc(O)cc1 [DIETHYLSTILBESTROL] | Not Active | Not Active
23 | CC(C)NCC(O)COc1cccc2ccccc12 (stereo not given) [PROPRANOLOL] | Not Active | Not Active

Target: T2, Polyunsaturated fatty acid lipoxygenase ALOX15 (Oryctolagus cuniculus, UniProt P12530);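 further: inhibition of 15-lipoxygenase enzyme activity measured with linoleic acid as the substrate; in other assays of this panel Not Active means under 50% inhibition at 10 µM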
T2 sequence (P12530 whole entry): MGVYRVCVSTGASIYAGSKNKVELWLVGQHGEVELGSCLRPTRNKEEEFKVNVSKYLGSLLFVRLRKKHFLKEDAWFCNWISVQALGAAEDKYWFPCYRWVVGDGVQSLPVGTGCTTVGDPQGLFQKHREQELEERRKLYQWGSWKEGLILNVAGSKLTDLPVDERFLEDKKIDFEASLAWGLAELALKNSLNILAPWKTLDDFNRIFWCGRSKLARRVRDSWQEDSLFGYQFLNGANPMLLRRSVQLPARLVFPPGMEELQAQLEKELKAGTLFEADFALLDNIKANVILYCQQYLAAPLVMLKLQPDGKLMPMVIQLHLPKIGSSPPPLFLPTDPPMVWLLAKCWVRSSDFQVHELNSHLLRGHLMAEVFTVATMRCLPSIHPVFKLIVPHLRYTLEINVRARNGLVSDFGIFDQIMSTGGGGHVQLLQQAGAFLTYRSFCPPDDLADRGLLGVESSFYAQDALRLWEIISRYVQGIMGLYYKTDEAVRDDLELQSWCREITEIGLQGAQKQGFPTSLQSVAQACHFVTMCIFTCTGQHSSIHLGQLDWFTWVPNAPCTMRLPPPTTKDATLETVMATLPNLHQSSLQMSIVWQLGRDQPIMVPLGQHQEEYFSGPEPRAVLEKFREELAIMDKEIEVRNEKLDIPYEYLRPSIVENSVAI
Assay: biochemical
Assay type: tissue-based, Reticulocytes
Conditions: read-out: IC50

Row | SMILES | IC50
24 | CC/C(=C(/CC)c1ccc(O)cc1)c1ccc(O)cc1 [DIETHYLSTILBESTROL] | 2960 nM

Same assay, conditions: reticulocytes

Row | SMILES | IC50
25 | CC1=C(CC(=O)O)c2cc(F)ccc2/C1=C\c1ccc([S+](C)[O-])cc1 (stereo not given) | Not Active
26 | N[C@H](CSC(=S)NCc1ccccc1)C(=O)O | Not Active
27 | Clc1ccc2c(c1)C(N1CCNCC1)=Nc1ccccc1O2 [AMOXAPINE] | Not Active
28 | CN1CCC(=C2c3ccccc3C=Cc3ccccc32)CC1 [CYPROHEPTADINE] | Not Active
29 | CC(C)NCC(O)COc1cccc2ccccc12 (stereo not given) [PROPRANOLOL] | Not Active

Target: D(3) dopamine receptor (Homo sapiens, UniProt P35462)
Sequence (P35462 whole entry): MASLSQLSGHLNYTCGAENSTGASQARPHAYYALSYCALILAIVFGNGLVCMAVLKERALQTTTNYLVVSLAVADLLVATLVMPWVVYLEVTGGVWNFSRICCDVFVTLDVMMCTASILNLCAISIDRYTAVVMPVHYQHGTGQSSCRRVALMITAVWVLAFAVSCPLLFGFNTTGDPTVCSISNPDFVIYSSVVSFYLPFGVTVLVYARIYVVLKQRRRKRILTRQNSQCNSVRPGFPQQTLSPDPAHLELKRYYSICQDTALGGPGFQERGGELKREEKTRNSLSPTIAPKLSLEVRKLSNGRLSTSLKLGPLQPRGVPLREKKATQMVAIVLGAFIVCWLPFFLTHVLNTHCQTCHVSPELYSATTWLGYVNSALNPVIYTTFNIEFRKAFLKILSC
Assay: DRUGMATRIX: Dopamine D3 radioligand binding (ligand: [3H] Spiperone)
Assay type: cell membranes, CHO, Membrane
Conditions: cho

Row | SMILES | IC50
30 | CC1=C(CC(=O)O)c2cc(F)ccc2/C1=C\c1ccc([S+](C)[O-])cc1 (stereo not given) | Not Active
31 | N[C@H](CSC(=S)NCc1ccccc1)C(=O)O | Not Active
32 | CC(C)NCC(O)COc1cccc2ccccc12 (stereo not given) [PROPRANOLOL] | Not Active

Target: Histamine H2 receptor (Homo sapiens, UniProt P25021); further: in other assays of this panel Not Active means under 50% inhibition at 10 µM
Sequence (P25021 whole entry): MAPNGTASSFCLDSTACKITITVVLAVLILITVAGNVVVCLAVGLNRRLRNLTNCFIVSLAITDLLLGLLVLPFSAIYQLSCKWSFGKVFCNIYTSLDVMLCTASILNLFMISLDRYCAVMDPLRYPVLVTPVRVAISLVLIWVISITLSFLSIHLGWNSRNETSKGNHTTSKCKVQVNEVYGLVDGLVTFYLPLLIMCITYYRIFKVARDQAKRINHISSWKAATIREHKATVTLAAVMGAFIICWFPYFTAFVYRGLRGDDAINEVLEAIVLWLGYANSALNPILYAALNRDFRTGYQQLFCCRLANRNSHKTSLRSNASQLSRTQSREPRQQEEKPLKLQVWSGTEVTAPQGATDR
Assay: not given
Assay type: cell membranes, CHO-K1, Membrane
Conditions: cho-k1

Row | SMILES | IC50
33 | CC1=C(CC(=O)O)c2cc(F)ccc2/C1=C\c1ccc([S+](C)[O-])cc1 (stereo not given) | Not Active
34 | N[C@H](CSC(=S)NCc1ccccc1)C(=O)O | Not Active
35 | Clc1ccc2c(c1)C(N1CCNCC1)=Nc1ccccc1O2 [AMOXAPINE] | Not Active
36 | CC/C(=C(/CC)c1ccc(O)cc1)c1ccc(O)cc1 [DIETHYLSTILBESTROL] | Not Active
37 | CC(C)NCC(O)COc1cccc2ccccc12 (stereo not given) [PROPRANOLOL] | Not Active

Same assay, conditions: read-out: IC50

Row | SMILES | IC50
38 | CN1CCC(=C2c3ccccc3C=Cc3ccccc32)CC1 [CYPROHEPTADINE] | 198 nM

Same assay, conditions: read-out: Ki

Row | SMILES | Ki
39 | CN1CCC(=C2c3ccccc3C=Cc3ccccc32)CC1 [CYPROHEPTADINE] | 195 nM

Target: T3, 5-hydroxytryptamine receptor 2C (Homo sapiens, UniProt P28335)
T3 sequence (P28335 whole entry): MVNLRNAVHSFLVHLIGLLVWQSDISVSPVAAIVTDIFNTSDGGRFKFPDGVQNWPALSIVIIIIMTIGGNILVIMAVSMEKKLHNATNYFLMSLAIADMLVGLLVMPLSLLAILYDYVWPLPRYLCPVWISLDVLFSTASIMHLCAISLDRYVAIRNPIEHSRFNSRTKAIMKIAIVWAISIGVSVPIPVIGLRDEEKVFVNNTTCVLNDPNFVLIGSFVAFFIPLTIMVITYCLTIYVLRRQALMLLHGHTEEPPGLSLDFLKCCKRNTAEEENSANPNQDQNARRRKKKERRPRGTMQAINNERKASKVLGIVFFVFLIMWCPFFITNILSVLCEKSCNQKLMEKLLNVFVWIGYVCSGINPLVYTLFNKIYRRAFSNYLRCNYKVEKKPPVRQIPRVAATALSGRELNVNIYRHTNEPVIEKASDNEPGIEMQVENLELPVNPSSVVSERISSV
Assay: DRUGMATRIX: Serotonin (5-Hydroxytryptamine) 5-HT2C radioligand binding (ligand: [3H] Mesulergine)
Assay type: cell membranes, CHO-K1, Membrane
Conditions: Not Active = under 50% inhibition at 10 µM; read-out: IC50

Row | SMILES | IC50
40 | CN1CCC(=C2c3ccccc3C=Cc3ccccc32)CC1 [CYPROHEPTADINE] | 2.44 nM

Same assay, conditions: Not Active = under 50% inhibition at 10 µM; read-out: Ki

Row | SMILES | Ki
41 | CN1CCC(=C2c3ccccc3C=Cc3ccccc32)CC1 [CYPROHEPTADINE] | 1.28 nM

Same assay, conditions: cho-k1; Not Active = under 50% inhibition at 10 µM

Row | SMILES | IC50
42 | CC1=C(CC(=O)O)c2cc(F)ccc2/C1=C\c1ccc([S+](C)[O-])cc1 (stereo not given) | Not Active
43 | N[C@H](CSC(=S)NCc1ccccc1)C(=O)O | Not Active

Target: T4, Cholecystokinin receptor type A (Homo sapiens, UniProt P32238); further: in other assays of this panel Not Active means under 50% inhibition at 10 µM
T4 sequence (P32238 whole entry): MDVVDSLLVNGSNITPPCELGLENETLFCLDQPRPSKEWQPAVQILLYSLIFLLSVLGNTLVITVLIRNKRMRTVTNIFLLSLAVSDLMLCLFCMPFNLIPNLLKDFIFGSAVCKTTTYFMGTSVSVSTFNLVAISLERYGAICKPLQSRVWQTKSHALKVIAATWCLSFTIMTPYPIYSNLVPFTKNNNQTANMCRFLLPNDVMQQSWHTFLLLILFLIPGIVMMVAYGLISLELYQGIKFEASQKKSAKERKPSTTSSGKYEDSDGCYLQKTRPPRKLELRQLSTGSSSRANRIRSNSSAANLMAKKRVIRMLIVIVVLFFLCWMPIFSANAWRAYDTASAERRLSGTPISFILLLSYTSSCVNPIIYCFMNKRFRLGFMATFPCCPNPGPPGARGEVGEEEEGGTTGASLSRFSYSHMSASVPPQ
Assay: not given
Assay type: cell membranes, Membrane
Conditions: 1321-n1

Row | SMILES | IC50
44 | CC1=C(CC(=O)O)c2cc(F)ccc2/C1=C\c1ccc([S+](C)[O-])cc1 (stereo not given) | Not Active
45 | N[C@H](CSC(=S)NCc1ccccc1)C(=O)O | Not Active
46 | Clc1ccc2c(c1)C(N1CCNCC1)=Nc1ccccc1O2 [AMOXAPINE] | Not Active
47 | CN1CCC(=C2c3ccccc3C=Cc3ccccc32)CC1 [CYPROHEPTADINE] | Not Active
48 | CC/C(=C(/CC)c1ccc(O)cc1)c1ccc(O)cc1 [DIETHYLSTILBESTROL] | Not Active
49 | CC(C)NCC(O)COc1cccc2ccccc12 (stereo not given) [PROPRANOLOL] | Not Active
